Calls of active or inactive are those of the source. The rule behind the calls is not given here.
Assays:
[1] = target: T1, Serine/threonine-protein kinase SMG1 (Homo sapiens, UniProt Q96Q15); experiment: Inhibition of human recombinant SMG1 expressed in HEK293 cells using GST-tagged p53 as substrate after 1 hr by DELFIA assay
[2] = target: T2, Serine/threonine-protein kinase mTOR (Homo sapiens, UniProt P42345); experiment: Inhibition of mTOR
Homo sapiens = species: Homo sapiens; experiment: Selectivity ratio of IC50 for mTOR to IC50 for human recombinant SMG1
[3] = target: Cyclin-dependent kinase 2 (Homo sapiens, UniProt P24941); experiment: Inhibition of CDK2
[4] = target: Cyclin-dependent kinase 1 (Homo sapiens, UniProt P06493); experiment: Inhibition of CDK1
[5] = target: Phosphatidylinositol 4,5-bisphosphate 3-kinase catalytic subunit alpha isoform (Homo sapiens, UniProt P42336); experiment: Inhibition of PI3Kalpha using diC8-tagged PIP2 as substrate after 30 to 60 mins by TAMRA-based fluorescence polarization assay
[6] = target: Phosphatidylinositol 4,5-bisphosphate 3-kinase catalytic subunit gamma isoform (Homo sapiens, UniProt P48736); experiment: Inhibition of PI3Kgamma using diC8-tagged PIP2 as substrate after 30 to 60 mins by TAMRA-based fluorescence polarization assay
[7] = target: T1, Serine/threonine-protein kinase SMG1; experiment: Inhibition of SMG1 in human MDA-MB-361 cells assessed as inhibition of UPF1 phosphorylation up to 3 uM after 6 hrs by immunostaining analysis; format: cell-based
[8] = target: T2, Serine/threonine-protein kinase mTOR; experiment: Inhibition of mTOR in human MDA-MB-361 cells assessed as inhibition of p70S6K phosphorylation at 0.3 to 3 uM after 6 hrs by immunostaining analysis; format: cell-based
[9] = target: T1, Serine/threonine-protein kinase SMG1; experiment: Inhibition of SMG1 in human MDA-MB-361 cells assessed as inhibition of UPF1 phosphorylation after 6 hrs by immunostaining analysis; format: cell-based
MDA-MB-361 = experiment: Inhibition of PI3K in human MDA-MB-361 cells assessed as inhibition of AKT phosphorylation at 0.3 to 3 uM after 6 hrs by immunostaining analysis; format: cell-based
[10] = target: T1, Serine/threonine-protein kinase SMG1; experiment: Inhibition of SMG1 in human MDA-MB-361 cells assessed as inhibition of UPF1 phosphorylation at 1 uM after 6 hrs by immunostaining analysis; format: cell-based
[11] = target: T1, Serine/threonine-protein kinase SMG1; experiment: Inhibition of SMG1 in human MDA-MB-361 cells assessed as inhibition of UPF1 phosphorylation at 0.3 uM after 6 hrs by immunostaining analysis; format: cell-based
[12] = target: Glycogen synthase kinase-3 alpha (Homo sapiens, UniProt P49840); experiment: Inhibition of GSK3alpha
[13] = target: Glycogen synthase kinase-3 beta (Homo sapiens, UniProt P49841); experiment: Inhibition of GSK3beta
MDA-MB-468 = experiment: Cytotoxicity against human MDA-MB-468 cells; format: functional, cell-based

T1 sequence (Q96Q15 whole entry): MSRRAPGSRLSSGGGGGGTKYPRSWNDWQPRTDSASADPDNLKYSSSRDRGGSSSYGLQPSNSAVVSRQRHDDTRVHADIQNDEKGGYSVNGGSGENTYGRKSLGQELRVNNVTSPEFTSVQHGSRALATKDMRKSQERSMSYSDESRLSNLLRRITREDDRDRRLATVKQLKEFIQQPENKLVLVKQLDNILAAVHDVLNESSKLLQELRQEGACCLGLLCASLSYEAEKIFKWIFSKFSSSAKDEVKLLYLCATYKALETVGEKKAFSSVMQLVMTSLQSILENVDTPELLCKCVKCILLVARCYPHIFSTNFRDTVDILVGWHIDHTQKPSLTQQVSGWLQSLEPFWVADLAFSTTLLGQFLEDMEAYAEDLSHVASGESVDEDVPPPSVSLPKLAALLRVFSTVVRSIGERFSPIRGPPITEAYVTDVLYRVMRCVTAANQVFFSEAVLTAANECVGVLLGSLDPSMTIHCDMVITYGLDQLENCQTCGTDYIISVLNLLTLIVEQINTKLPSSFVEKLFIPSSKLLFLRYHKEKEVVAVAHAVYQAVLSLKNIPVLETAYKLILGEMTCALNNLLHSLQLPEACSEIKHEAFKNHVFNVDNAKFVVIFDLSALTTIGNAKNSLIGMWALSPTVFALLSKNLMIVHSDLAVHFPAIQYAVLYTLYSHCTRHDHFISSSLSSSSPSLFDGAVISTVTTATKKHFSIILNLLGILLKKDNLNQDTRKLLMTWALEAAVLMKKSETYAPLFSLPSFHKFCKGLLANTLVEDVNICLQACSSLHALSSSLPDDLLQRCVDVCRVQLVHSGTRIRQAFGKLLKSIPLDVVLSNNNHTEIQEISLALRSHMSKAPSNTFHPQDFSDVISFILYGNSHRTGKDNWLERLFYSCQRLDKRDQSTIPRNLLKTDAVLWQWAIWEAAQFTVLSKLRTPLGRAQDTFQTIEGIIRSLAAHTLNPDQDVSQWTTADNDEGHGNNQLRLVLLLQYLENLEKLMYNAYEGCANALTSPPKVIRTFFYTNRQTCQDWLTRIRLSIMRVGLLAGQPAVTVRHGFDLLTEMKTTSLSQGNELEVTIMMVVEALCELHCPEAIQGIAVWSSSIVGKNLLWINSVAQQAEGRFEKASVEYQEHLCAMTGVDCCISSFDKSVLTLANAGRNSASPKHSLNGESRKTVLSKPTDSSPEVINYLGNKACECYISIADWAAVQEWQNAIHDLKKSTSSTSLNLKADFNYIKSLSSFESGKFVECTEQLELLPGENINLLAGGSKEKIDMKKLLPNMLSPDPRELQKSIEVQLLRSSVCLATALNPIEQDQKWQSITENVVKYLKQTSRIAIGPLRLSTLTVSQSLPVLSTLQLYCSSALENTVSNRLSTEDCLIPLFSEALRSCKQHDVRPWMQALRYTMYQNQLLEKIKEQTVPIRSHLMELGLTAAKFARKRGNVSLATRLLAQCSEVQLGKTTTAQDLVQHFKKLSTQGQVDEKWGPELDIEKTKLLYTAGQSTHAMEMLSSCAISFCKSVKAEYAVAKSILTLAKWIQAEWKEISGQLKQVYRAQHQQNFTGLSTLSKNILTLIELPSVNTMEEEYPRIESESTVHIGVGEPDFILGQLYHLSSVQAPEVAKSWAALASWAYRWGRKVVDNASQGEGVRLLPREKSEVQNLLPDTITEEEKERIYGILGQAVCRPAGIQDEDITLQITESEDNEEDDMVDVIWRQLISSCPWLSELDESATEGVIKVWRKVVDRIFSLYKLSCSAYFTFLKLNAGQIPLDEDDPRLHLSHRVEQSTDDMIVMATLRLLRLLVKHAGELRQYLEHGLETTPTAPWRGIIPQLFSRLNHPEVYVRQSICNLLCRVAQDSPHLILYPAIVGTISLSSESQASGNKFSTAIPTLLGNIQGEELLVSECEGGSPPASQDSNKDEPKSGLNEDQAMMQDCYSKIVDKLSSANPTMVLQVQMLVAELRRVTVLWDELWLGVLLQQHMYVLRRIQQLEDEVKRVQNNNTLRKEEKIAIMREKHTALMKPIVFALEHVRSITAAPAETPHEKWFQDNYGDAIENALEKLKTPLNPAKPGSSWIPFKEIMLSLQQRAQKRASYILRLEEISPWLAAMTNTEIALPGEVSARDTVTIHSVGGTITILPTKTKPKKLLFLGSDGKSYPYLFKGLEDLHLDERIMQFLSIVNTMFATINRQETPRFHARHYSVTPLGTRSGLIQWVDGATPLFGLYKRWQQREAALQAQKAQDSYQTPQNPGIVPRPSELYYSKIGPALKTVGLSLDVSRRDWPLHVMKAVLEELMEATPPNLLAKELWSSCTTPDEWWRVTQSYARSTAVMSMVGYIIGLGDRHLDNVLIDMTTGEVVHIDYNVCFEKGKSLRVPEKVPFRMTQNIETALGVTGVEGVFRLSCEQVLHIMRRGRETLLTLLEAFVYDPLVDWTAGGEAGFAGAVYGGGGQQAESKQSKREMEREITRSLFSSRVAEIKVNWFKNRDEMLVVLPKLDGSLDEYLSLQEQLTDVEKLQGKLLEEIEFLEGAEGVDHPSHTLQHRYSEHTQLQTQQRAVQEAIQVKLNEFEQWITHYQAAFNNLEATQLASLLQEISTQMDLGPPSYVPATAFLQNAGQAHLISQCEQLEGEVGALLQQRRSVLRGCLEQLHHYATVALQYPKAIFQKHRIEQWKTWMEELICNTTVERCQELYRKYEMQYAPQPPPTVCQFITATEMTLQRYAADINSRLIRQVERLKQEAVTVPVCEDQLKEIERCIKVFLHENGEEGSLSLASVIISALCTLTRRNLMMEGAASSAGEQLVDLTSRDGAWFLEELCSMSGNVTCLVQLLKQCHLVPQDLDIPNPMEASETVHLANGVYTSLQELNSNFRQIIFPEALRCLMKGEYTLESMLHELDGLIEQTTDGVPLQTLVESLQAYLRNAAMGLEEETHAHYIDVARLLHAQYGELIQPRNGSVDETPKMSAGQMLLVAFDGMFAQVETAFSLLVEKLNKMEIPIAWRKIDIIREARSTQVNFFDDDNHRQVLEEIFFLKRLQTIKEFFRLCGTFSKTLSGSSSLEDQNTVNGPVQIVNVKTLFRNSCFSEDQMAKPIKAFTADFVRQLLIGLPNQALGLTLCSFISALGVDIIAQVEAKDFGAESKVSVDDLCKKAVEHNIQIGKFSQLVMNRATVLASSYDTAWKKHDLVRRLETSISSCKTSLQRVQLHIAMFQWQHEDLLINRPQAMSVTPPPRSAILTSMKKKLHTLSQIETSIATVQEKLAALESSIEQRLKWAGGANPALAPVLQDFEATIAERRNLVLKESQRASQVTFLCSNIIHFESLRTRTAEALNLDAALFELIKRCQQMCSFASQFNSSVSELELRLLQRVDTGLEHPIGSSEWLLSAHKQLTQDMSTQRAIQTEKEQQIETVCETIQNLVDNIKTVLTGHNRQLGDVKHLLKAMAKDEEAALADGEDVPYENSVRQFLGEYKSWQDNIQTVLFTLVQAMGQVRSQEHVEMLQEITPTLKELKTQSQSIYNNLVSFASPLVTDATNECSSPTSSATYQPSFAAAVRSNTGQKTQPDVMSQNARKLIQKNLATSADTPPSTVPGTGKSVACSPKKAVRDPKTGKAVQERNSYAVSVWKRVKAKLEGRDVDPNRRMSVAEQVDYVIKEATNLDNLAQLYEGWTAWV
Phosphatidylinositol 4,5-bisphosphate 3-kinase catalytic subunit gamma isoform, sequence (P48736 whole entry, canonical isoform): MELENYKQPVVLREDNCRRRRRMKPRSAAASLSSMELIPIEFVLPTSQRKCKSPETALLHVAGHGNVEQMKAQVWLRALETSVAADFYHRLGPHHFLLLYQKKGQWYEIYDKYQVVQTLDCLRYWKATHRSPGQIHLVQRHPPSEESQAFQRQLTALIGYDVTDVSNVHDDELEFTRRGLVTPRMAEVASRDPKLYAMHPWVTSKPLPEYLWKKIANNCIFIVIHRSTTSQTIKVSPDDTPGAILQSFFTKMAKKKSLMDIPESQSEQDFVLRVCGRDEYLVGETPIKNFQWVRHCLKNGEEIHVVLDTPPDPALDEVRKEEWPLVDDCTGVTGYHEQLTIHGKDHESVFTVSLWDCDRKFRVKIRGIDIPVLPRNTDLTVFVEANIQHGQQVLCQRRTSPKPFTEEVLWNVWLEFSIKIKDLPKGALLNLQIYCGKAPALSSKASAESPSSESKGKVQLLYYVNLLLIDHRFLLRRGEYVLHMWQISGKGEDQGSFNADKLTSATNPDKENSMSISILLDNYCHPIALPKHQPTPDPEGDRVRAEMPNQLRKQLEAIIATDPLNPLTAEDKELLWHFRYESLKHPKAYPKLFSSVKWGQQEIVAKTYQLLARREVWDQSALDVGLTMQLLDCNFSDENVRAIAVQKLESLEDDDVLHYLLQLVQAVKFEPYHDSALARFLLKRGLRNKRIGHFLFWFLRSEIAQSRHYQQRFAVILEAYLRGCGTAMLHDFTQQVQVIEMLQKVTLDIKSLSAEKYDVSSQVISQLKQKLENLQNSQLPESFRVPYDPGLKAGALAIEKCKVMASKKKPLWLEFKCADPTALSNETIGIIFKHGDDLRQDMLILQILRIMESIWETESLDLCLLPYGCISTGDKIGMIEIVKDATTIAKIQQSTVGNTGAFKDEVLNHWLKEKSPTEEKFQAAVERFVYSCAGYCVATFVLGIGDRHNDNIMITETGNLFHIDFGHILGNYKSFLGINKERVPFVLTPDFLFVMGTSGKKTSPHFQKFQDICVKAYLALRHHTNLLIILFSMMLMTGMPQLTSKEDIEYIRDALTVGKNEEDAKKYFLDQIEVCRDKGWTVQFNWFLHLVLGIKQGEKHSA
Cyclin-dependent kinase 1, sequence (P06493 whole entry, canonical isoform): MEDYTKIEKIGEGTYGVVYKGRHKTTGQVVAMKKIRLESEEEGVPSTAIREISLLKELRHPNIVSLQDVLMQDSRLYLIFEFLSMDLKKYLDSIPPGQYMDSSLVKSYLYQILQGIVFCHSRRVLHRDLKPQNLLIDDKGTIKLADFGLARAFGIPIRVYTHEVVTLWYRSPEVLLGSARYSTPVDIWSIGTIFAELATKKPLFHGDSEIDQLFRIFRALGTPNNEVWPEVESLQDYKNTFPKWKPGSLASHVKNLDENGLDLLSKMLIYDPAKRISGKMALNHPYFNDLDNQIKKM

Row | Structure (SMILES) | IC50 [1] | IC50 [2] | Ratio IC50 (Homo sapiens) | IC50 [3] | IC50 [4] | other results
1 | c1ccc(Nc2nccc(-c3ccnc(N4CCOCC4)c3)n2)cc1 | 1500 nM | > 4000 nM | > 3 |  |  | 
2 | NS(=O)(=O)c1cccc(Nc2nccc(-c3ccnc(N4CC5CCC(C4)O5)c3)n2)c1 | 6 nM | 200 nM | 33 | 21 nM | 48 nM | 
3 | CCN(CC)c1cc(-c2ccnc(Nc3cccc(S(N)(=O)=O)c3)n2)ccn1 | 3 nM | 110 nM | 37 | < 5.2 nM | 7.4 nM | 
4 | COc1cccc(Nc2nccc(-c3ccnc(N4CCOCC4)c3)n2)c1 | 1100 nM | 4600 nM | 4 |  |  | 
5 | CNC(=O)Nc1ccc(-c2cc(-c3ccnc(Nc4ccc(C)c(S(=O)(=O)NC)c4)n3)ccn2)cc1 | < 0.05 nM | 18 nM | > 350 | 110 nM | 230 nM | IC50 [5]: 43 nM; IC50 [6]: 63 nM
6 | NS(=O)(=O)c1cccc(Nc2nccc(-c3ccnc(N4CCOCC4)c3)n2)c1 | 11 nM | 610 nM | 56 | 19 nM | 55 nM | 
7 | CN1CCN(c2cc(-c3ccnc(Nc4cccc(S(N)(=O)=O)c4)n3)ccn2)CC1 | 310 nM | 3300 nM | 10 |  |  | 
8 | N#Cc1cccc(Nc2nccc(-c3ccnc(N4CCOCC4)c3)n2)c1 | 80 nM | > 4000 nM | > 50 |  |  | 
9 | Cc1cccc(Nc2nccc(-c3ccnc(N4CCOCC4)c3)n2)c1 | 330 nM | > 20000 nM | > 61 | 46 nM | 100 nM | 
10 | CCN(CC)S(=O)(=O)c1cccc(Nc2nccc(-c3ccnc(-c4ccc(NC(=O)NC)cc4)c3)n2)c1 | 0.2 nM | 25 nM | 125 | 560 nM | 3200 nM | IC50 [5]: 78 nM; IC50 [6]: 59 nM
11 | CNC(=O)Nc1ccc(-c2cc(-c3ccnc(Nc4cccc(S(N)(=O)=O)c4)n3)ccn2)cc1 | < 0.05 nM | 18 nM | > 360 | 23 nM | 62 nM | IC50 [5]: 44 nM; IC50 [6]: 91 nM
12 | NS(=O)(=O)c1cccc(Nc2nccc(-c3ccnc(N4CCCCC4)c3)n2)c1 | 3 nM | 140 nM | 47 | 16 nM | 36 nM | inhibition [8]: Active; inhibition [9]: Dose-dependent effect; inhibition (MDA-MB-361): Active
13 | NS(=O)(=O)c1ccc(Nc2nccc(-c3cccc(C(=O)N4CCCCC4)c3)n2)cc1 | 450 nM | 890 nM |  |  |  | 
14 | CNC(=O)Nc1ccc(-c2cc(-c3ccnc(Nc4ccc(C)c(S(N)(=O)=O)c4)n3)ccn2)cc1 | < 0.05 nM | 16 nM | > 320 |  |  | 
15 | CNC(=O)Nc1ccc(-c2cc(-c3ccnc(Nc4cccc(S(=O)(=O)NC)c4)n3)ccn2)cc1 | 0.1 nM | 15 nM | > 150 | 100 nM | 210 nM | IC50 [5]: 80 nM; IC50 [6]: 82 nM
16 | Clc1cccc(Nc2nccc(-c3ccnc(N4CCOCC4)c3)n2)c1 | 280 nM | > 20000 nM | > 71 | 8.9 nM | 35 nM | 
17 | CCN(CC)S(=O)(=O)c1cc(Nc2nccc(-c3ccnc(-c4ccc(NC(=O)NC)cc4)c3)n2)ccc1C | 0.2 nM | 88 nM | 440 | 3000 nM | 14000 nM | IC50 [5]: 130 nM; IC50 [6]: 93 nM
18 | CCN(CC)S(=O)(=O)c1cc(Nc2nccc(-c3ccnc(-c4ccc(NC(=O)NC)cc4)c3)n2)ccc1Cl | 0.11 nM | 50 nM | 455 | 7100 nM | 32000 nM | inhibition [8]: inactive; inhibition [10]: Active; IC50 [5]: 92 nM; inhibition [11]: Active; inhibition (MDA-MB-361): inactive; IC50 [12]: 260 nM; IC50 [13]: 330 nM; IC50 [6]: 60 nM; IC50 (MDA-MB-468): 75 nM

Now from value to compound, other results behind:

Row | IC50 [1] | IC50 [2] | Ratio IC50 (Homo sapiens) | IC50 [3] | IC50 [4] | Structure (SMILES) | other results
19 | < 0.05 nM | 7.7 nM | > 154 | 140 nM | 320 nM | CNC(=O)Nc1ccc(-c2cc(-c3ccnc(Nc4ccc(Cl)c(S(=O)(=O)NC)c4)n3)ccn2)cc1 | 
20 | < 0.05 nM | 45 nM | > 900 | 460 nM | 1200 nM | CNC(=O)Nc1ccc(-c2cc(-c3ccnc(Nc4ccc(C)c(S(=O)(=O)N(C)C)c4)n3)ccn2)cc1 | IC50 [5]: 61 nM; IC50 [6]: 72 nM
21 | 22 nM | 320 nM | 15 | 6.7 nM | 12 nM | NS(=O)(=O)c1cccc(Nc2nccc(-c3ccnc(NCCCO)c3)n2)c1 | 
22 | 370 nM | > 20000 nM | > 54 |  |  | NS(=O)(=O)c1ccc(Nc2nccc(-c3ccnc(N4CCOCC4)c3)n2)cc1 | inhibition [7]: inactive
23 | 1000 nM | > 20000 nM | > 19 |  |  | Clc1ccc(Nc2nccc(-c3ccnc(N4CCOCC4)c3)n2)cc1 | 
24 | 25 nM | 3200 nM | 130 | 31 nM | 100 nM | NS(=O)(=O)c1cccc(Nc2nccc(-c3ccnc(N4C5CCC4COC5)c3)n2)c1 | 
25 | 110 nM | 800 nM | 8 | < 5.2 nM | < 5.2 nM | OCCCNc1cc(-c2ccnc(Nc3cccc(Cl)c3)n2)ccn1 | 
26 | 250 nM | 1700 nM | 7 |  |  | FC(F)(F)c1cccc(Nc2nccc(-c3ccnc(N4CCOCC4)c3)n2)c1 | 
27 | < 0.05 nM | 12 nM | > 244 | 520 nM | 1400 nM | CNC(=O)Nc1ccc(-c2cc(-c3ccnc(Nc4ccc(Cl)c(S(=O)(=O)N(C)C)c4)n3)ccn2)cc1 | IC50 [5]: 33 nM; IC50 [6]: 54 nM

Source: ChEMBL document CHEMBL2157945, “Identification of pyrimidine derivatives as hSMG-1 inhibitors” (Bioorg Med Chem Lett, 2012)
